These results are taken from ChEMBL document CHEMBL4813945, “Discovery and development of novel pyrimidine and pyrazolo/thieno-fused pyrimidine derivatives as potent and orally active inducible nitric oxide synthase dimerization inhibitor with efficacy for arthritis” (Eur J Med Chem, 2021).

Series [1] relates to L02. The series is described as follows: Antiinflammatory activity against human L02 assessed as inhibition of LPS-induced NO production preincubated for 1 hrs followed by LPS stimulation and measured after 24 hrs by Griess assay relative to control. The class given is functional, cell-based.
For series [2], the system named is RAW264.7. The series is described as follows: Cytotoxicity against mouse RAW264.7 cells at 20 uM measured after 24 hrs. The class given is cell-based. The conditions noted are these: raw264.7, 24 h.
For series [3], the system named is RAW264.7. The series is described as follows: Antiinflammatory activity against mouse RAW264.7 cells assessed as inhibition of LPS-induced NO production at 10 uM preincubated for 1 hrs followed by LPS stimulation and measured after 24 hrs by Griess assay relative to control. The conditions noted are these: time 25 hrs. Type of series: functional. In general terms: The Griess reaction detects nitrite, a stable product of nitric oxide.

For `COc1cc(/C=C/c2nc(N3CCCC3)c3sccc3n2)cc(OC)c1OC`, the IC50 – broadly, the midpoint of a concentration-inhibition curve – in series [1] amounted to 681 µM. Also, in series [2], the Activity entry is “Non-Toxic”. Besides, the inhibition (usually the change of the read-out against control, counted positive when it falls) at 10 µM in series [3] worked out at 33.2%.
With `COc1cc(/C=C/c2nccc(NC(C)C)n2)cc(OC)c1OC`, in series [1], the half-inhibitory concentration (IC50) was less than 40 µM. Moreover, the Activity result in series [2] was “Non-Toxic”. Besides, the inhibition at 10 µM in series [3] was determined as 61%.
In the same order, the values of `COc1cccc(CNc2nc(/C=C/c3ccccc3)nc3ccsc23)c1` are greater than 1000 µM, “Non-Toxic” and 30.7%.
For `C(=C\c1ccco1)/c1nc(NC2CC2)c2sccc2n1`, the half-inhibitory concentration (IC50) in series [1] was greater than 1000 µM. Besides, in series [2], the Activity entry is recorded as “Non-Toxic”. In series [3], the inhibition at 10 µM amounted to 33.3%.
For the molecule `COc1cc(/C=C/c2nc(Nc3ccc(C)cc3)c3sccc3n2)cc(OC)c1OC`, the IC50 in series [1] was less than 40 µM. The Activity result in series [2] is given as “Non-Toxic”. In series [3], the inhibition at 10 µM was 19.2%.
In the same order, the values of `COc1cc(/C=C/c2nccc(NCCc3ccc(F)cc3)n2)cc(OC)c1OC` are 544 µM, “Non-Toxic” and 47%.
In the same order, the values of `CCCc1nn(C)c2c(N3CCS(=O)(=O)CC3)nc(/C=C/c3ccc[n+]([O-])c3)nc12` are greater than 1000 µM, “Non-Toxic” and 3.13%.
Turning to `CCCc1nn(C)c2c(NCCc3ccccc3)nc(/C=C/c3nc(C)c(C)nc3C)nc12`, in series [1], the half-inhibitory concentration (IC50) is less than 40 µM. In series [2], the Activity result was “Non-Toxic”. In series [3], the inhibition at 10 µM was 52.7%.
In the same order, the values of `COc1cc(/C=C/c2nc(N3CCOCC3)c3sccc3n2)cc(OC)c1OC` are greater than 1000 µM, “Non-Toxic” and 12.2%.
Turning to `CC(C)Nc1nc(/C=C/c2ccccc2)nc2ccsc12`, the IC50 in series [1] is greater than 1000 µM. Moreover, in series [2], the Activity entry is reported as “Non-Toxic”. For the same molecule, in series [3], the inhibition at 10 µM was 22.9%.
In the same order, the values of `COc1cc(/C=C/c2nc(NC(C)C)c3sccc3n2)cc(OC)c1OC` are greater than 1000 µM, “Non-Toxic” and 59.1%.
In the same order, the values of `CCCc1nn(C)c2c(N3CCOCC3)nc(/C=C/c3nc(C)c(C)nc3C)nc12` are 370 µM, “Non-Toxic” and 74.2%.
In the same order, the values of `COc1cc(/C=C/c2nc(O)nc(NC(C)C)n2)cc(OC)c1OC` are less than 40 µM, “Non-Toxic” and 34%.
With `CCN1CCN(c2nc(/C=C/c3cc(OC)c(OC)c(OC)c3)nc3ccsc23)CC1`, the IC50 in series [1] was greater than 1000 µM. The Activity entry in series [2] is listed as “Non-Toxic”. Besides, in series [3], the inhibition at 10 µM was determined as 46.7%.
In the same order, the values of `FC(F)(F)c1ccc(Nc2nc(/C=C/c3ccccc3)nc3ccsc23)cc1` are greater than 1000 µM, “Non-Toxic” and 30.1%.
In the same order, the values of `COc1cc(/C=C/c2nccc(NCCc3ccccc3)n2)cc(OC)c1OC` are less than 40 µM, “Non-Toxic” and 85%.
Consider `CCCc1nn(C)c2c(NC3CC3)nc(CCc3cccnc3)nc12`, for which the IC50 in series [1] was found to be 564 µM. Also, the Activity result in series [2] was “Non-Toxic”. In series [3], the inhibition at 10 µM amounted to 7.29%.
Consider `CC(C)c1ccc(Nc2nc(/C=C/c3ccco3)nc3ccsc23)cc1`, for which the IC50 in series [1] is greater than 1000 µM. Further, the Activity entry in series [2] is “Non-Toxic”. In addition, the inhibition at 10 µM in series [3] came out at 31.7%.
Regarding `C(=C\c1nc(Nc2ccccc2)c2sccc2n1)/c1ccccc1`, the IC50 in series [1] was greater than 1000 µM. For the same molecule, the Activity result in series [2] is “Non-Toxic”. The inhibition at 10 µM in series [3] amounted to 21%.
In the same order, the values of `CCCc1nn(C)c2c(NC3CC3)nc(/C=C/c3ccc[n+]([O-])c3)nc12` are 580 µM, “Non-Toxic” and 29.2%.
Take `CN1CCN(c2nc(/C=C/c3ccco3)nc3ccsc23)CC1`: in series [1], the 50% inhibitory concentration (IC50) was greater than 1000 µM. Also, in series [2], the Activity entry was “Non-Toxic”. The inhibition at 10 µM in series [3] stood at 43.9%.
For the molecule `CCCc1nn(C)c2c(NCc3ccc(F)cc3)nc(/C=C/c3ccc[n+]([O-])c3)nc12`, in series [1], the half-maximal inhibitory concentration (IC50) was less than 40 µM. In series [2], the Activity result is given as “Non-Toxic”. Besides, the inhibition at 10 µM in series [3] stood at 64.6%.
In the same order, the values of `CCCc1nn(C)c2c(NCCc3ccccc3)nc(/C=C/c3ccc[n+]([O-])c3)nc12` are 392 µM, “Non-Toxic” and 72.9%.
In the same order, the values of `CCCc1nn(C)c2c(NC(C)C)nc(CCc3cccnc3)nc12` are 514 µM, “Non-Toxic” and 30.2%.
For `CN(C)c1nc(/C=C/c2ccccc2)nc2ccsc12`, the IC50 in series [1] was greater than 1000 µM. The Activity result in series [2] is on record as “Non-Toxic”. Further, the inhibition at 10 µM in series [3] came out at 3.57%.
In the same order, the values of `COc1cc(/C=C/c2nc(NCc3ccccc3Cl)c3sccc3n2)cc(OC)c1OC` are greater than 1000 µM, “Non-Toxic” and 21.9%.
In the same order, the values of `C(=C\c1ccco1)/c1nc(N2CCOCC2)c2sccc2n1` are greater than 1000 µM, “Non-Toxic” and 28.1%.
In the same order, the values of `CCCc1nn(C)c2c(N3CCS(=O)(=O)CC3)nc(/C=C/c3cccnc3)nc12` are 472 µM, “Non-Toxic” and 60.2%.
With `CCCc1nn(C)c2c(NCCc3cccc(Cl)c3)nc(/C=C/c3ccc[n+]([O-])c3)nc12`, the IC50 in series [1] was found to be 162 µM. For the same molecule, the Activity result in series [2] is listed as “Non-Toxic”. Moreover, the inhibition at 10 µM in series [3] was determined as 37.5%.
